Legend:
human GST-PIKFYVE = molecular target: T1, human GST-PIKFYVE (Homo sapiens, UniProt Q9Y2I7); experiment: ADP-Glo kinase assay, enzyme inhibition activity against human PIKFYVE (Carna biosciences); format: biochemical; settings: inhibitory activity at final compound concentration 10 nM; 1 hour at room temperature
T1 construct: GST; purchased Carna biosciences 11-118
How it was run: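 Human GST-PIKFYVE (glutathione Sepharose-purified) was reacted with substrate and ATP for 1 h at room temperature in 50 mM MOPS, 1 mM DTT, pH 7.2, with compound at 10 nM final. ADP formed was read by ADP-Glo luminescence; inhibition was calculated against no-enzyme (100%) and no-compound (0%) controls.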

[1] = Microsomal metabolic stability assay; format: in vitro ADME, human or CD1 male mouse; settings: Clint class; 1 μM compound, 0.5 mg/ml microsomes, NADPH, UDPGA, Alamethicin; species not given
Experimental: The microsomal metabolic stability assay was performed using pooled human or CD1 male mouse interspecies microsomes. Supplemental cofactors (NADPH, UDPGA) and microsomal membrane pore-forming factor (Alamethicin) were added to promote cytochrome P450 (CYP), UGT reactivity to the target compound. Test compounds (1 μM incubation concentration) and microsomes (0.5 mg/ml incubation concentration) were diluted in 0.1 M phosphate buffer, pH 7.4, and incubated (37° C.). The reaction was initiated by the addition of NADPH (1 mM), UDPGA (1 mM) and Alamethicin (25 μg/mg). The incubation times were 0, 5, 15, 30, and 45 minutes, and at each time point, the reaction was terminated by adding acetonitrile containing internal standard (IS)(1:3 ratio). The plate was then sealed, centrifuged (3000 rpm, 20 min, 4° C.), and the supernatant was analyzed by LC-MS/MS. Hepatic extraction ratio values were calculated from the measured in vitro clearance and Intrinsic clearance (Clint) values were calculated from the assay results, and the respective Clint values were categorized into Low, Medium, and High categories based on the reference document (ref. Prostaglandins & other lipid mediators 136 (2018): 90-95).

PIKFYVE = molecular target: T2, PIKFYVE (Homo sapiens, UniProt Q9Y2I7); experiment: NanoBRET TE Intracellular Kinase Assay, interaction of PIKFYVE and compounds in HEK293 cells; format: cell-based; settings: IC50 class from BRET; HEK293 cells expressing PIKFYVE-NanoLuc; 2 hours incubation
T2 construct: host or cells: HEK293 (ATCC, CRL-1573)
Experimental: To predict the efficacy of the compounds according to Example on PIKFYVE in humans, the interaction between PIKFYVE and the compounds was tested using the HEK293 cell line derived from human embryonic kidney (ATCC, CRL-1573) via NanoBRETT TE Intracellular Kinase Assay Service of Carna biosciences Inc., (Japan). The evaluation method provided by Carna biosciences Inc., was shown below and the NanoBRET™ TE Intracellular Kinase Assay, K-8 Kit (Promega, CS1810C88) was used.
The HEK-293 cells cultured in Opti-MEM™ I Reduced Serum Medium (Thermo Fisher, 11058-021) were transfected with Transfection Carrier DNA (Promega, E4881), PIKFYVE-NanoLuc Fusion Vector (Promega, CS1810C225), and FuGENE HD Transfection Reagent (Promega, E2311) to produce cells expressing genes combining PIKFYVE and NanoLuc, followed by culturing 100 μl (2×10^5 cells/ml) each in 96-well plates (Corning, 3917).
10× compounds according to Examples or Comparative Examples prepared by concentration in 1× NanoBRET™ tracer reagent and DMSO were reacted in 96-well plates and incubated for 2 hours in a 37° C., 5% CO2 incubator.
After the reaction was completed, 3× Complete NanoBRET™ Nano-Glo Substrate solution was added to each well, and the reaction was allowed to run for 2-3 minutes at room temperature before BRET was measured using a GloMax Discover Multimode Microplate Reader (Promega).

T1 sequence (Q9Y2I7 whole entry): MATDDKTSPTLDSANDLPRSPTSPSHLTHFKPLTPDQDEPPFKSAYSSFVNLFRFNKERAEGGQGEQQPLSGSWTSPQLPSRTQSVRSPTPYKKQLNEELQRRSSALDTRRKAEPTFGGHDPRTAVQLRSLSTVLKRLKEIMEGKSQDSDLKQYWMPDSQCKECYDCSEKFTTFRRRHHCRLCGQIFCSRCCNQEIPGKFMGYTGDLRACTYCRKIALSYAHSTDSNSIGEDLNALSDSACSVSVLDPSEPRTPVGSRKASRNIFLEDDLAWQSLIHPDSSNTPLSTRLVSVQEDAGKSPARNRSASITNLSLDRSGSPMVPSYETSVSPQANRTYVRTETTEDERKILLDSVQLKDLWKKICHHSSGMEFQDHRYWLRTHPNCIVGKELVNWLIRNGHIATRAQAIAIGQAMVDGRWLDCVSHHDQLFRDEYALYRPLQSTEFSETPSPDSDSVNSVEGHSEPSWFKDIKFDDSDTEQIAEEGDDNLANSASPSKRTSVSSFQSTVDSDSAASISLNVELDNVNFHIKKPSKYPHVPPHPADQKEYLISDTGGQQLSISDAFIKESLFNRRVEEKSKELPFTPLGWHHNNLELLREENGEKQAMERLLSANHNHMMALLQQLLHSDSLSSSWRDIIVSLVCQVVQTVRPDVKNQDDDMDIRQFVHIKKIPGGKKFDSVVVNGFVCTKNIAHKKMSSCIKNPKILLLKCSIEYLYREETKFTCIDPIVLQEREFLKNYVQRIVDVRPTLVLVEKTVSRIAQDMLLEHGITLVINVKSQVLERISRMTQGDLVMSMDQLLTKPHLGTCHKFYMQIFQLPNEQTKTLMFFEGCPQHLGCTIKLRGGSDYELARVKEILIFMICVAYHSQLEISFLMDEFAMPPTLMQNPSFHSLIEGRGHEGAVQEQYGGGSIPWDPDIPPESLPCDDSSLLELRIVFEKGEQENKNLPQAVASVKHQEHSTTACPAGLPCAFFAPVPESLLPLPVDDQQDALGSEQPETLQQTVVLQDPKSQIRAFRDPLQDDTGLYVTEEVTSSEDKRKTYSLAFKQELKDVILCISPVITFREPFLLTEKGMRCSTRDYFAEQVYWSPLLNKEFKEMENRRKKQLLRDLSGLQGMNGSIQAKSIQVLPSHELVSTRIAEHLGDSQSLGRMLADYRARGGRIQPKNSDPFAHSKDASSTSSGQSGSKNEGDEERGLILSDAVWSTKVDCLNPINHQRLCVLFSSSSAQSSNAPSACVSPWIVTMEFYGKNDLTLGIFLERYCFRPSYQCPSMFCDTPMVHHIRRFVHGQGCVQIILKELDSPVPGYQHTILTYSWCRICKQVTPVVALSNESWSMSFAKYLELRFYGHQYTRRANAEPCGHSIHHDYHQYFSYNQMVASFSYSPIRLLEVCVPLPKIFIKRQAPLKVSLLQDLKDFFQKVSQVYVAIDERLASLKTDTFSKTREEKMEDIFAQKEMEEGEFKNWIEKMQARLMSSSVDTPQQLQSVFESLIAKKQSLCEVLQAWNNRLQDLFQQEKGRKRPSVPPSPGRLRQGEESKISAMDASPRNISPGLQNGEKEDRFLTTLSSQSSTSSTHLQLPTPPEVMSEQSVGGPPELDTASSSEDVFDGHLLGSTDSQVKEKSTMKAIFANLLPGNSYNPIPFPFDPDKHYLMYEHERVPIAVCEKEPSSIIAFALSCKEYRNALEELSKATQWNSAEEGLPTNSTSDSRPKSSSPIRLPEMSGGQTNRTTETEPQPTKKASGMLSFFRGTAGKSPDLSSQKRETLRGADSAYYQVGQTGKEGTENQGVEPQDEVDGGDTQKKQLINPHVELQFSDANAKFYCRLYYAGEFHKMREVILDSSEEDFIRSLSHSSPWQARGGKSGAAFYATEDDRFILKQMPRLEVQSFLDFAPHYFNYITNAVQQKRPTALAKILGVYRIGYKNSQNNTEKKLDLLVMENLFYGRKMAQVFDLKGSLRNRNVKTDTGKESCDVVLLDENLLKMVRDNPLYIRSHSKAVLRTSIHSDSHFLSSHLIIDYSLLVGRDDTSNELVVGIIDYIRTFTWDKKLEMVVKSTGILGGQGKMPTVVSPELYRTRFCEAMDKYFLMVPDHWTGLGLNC
T2 sequence (Q9Y2I7 whole entry): as above

SMILES	ADP-Glo kinase assay (%, 10 nM) (human GST-PIKFYVE) [%]	Microsomal metabolic stability [1]	IC50 (PIKFYVE) [nM]
O=C(Cn1cnc2c(N/N=C/c3c[nH]c4ccccc34)nc(N3CCOCC3)nc21)c1ccccn1 [Example 24, (E)-2-(6-(2-((1H-indol-3-yl)methylene)hydrazinyl)-2-morpholino-9H-purin-9-yl)-1-(pyridin-2-yl)ethan-1-one]	72.15	Medium (Medium 8.8~48,)	10 to 20
Cc1cccc(/C=N/Nc2nc(N3CCOCC3)nc3c2ncn3CC(=O)c2ccc[nH]2)c1 [Example 34, (E)-2-(6-(2-(3-methylbenzylidene)hydrazinyl)-2-morpholino-9H-purin-9-yl)-1-(1H-pyrrol-2-yl)ethan-1-one]	74.72	Medium (Medium 8.8~48,)	–
COc1ccc(C(=O)Cn2cnc3c(N/N=C/c4cccc(C)c4)nc(N4CCOCC4)nc32)cc1 [Example 39, (E)-1-(4-methoxyphenyl)-2-(6-(2-(3-methylbenzylidene)hydrazinyl)-2-morpholino-9H-purin-9-yl)ethan-1-one]	74.99	Medium (Medium 8.8~48,)	10 to 20
Cc1cccc(/C=N/Nc2nc(N3CCOCC3)nc3c2ncn3C2CN(S(C)(=O)=O)C2)c1 [Example 85, (E)-4-(6-(2-(3-methylbenzylidene)hydrazinyl)-9-(1-(methylsulfonyl)azetidin-3-yl)-9H-purin-2-yl)morpholine]	70.06	Medium (Medium 8.8~48,)	–
Cc1cccc(/C=N/Nc2nc(N3CCOCC3)nc3c2ncn3-c2ccc(O)nc2)c1 [Example 114, (E)-5-(6-(2-(3-methylbenzylidene)hydrazinyl)-2-morpholino-9H-purin-9-yl)pyridin-2-ol]	80.06	–	20 to 30
Cc1cccc(/C=N/Nc2nc(N3CCOCC3)nc3c2ncn3-c2cccc(O)c2)c1 [Example 131, (E)-3-(6-(2-(3-methylbenzylidene)hydrazinyl)-2-morpholino-9H-purin-9-yl)phenol]	91.40	–	≤ 10
COc1cccc(-n2cnc3c(-n4ccc(-c5cccc(C)c5)n4)nc(N4CCOCC4)nc32)c1 [Example 137, 4-(9-(3-methoxyphenyl)-6-(3-(m-tolyl)-1H-pyrazol-1-yl)-9H-purin-2-yl)morpholine]	81.44	–	≤ 10
Cc1cccc(/C=N/Nc2nc(N3CCOCC3)nc3c2ncn3-c2ccc(C#N)cn2)c1 [Example 146, (E)-6-(6-(2-(3-methylbenzylidene)hydrazinyl)-2-morpholino-9H-purin-9-yl)nicotinonitrile]	79.77	–	≤ 10
Cc1cccc(/C=N/Nc2nc(N3CCOCC3)nc3c2ncn3-c2cc(C)ns2)c1 [Example 148, (E)-4-(6-(2-(3-methylbenzylidene)hydrazinyl)-9-(3-methylisothiazol-5-yl)-9H-purin-2-yl)morpholine]	73.88	–	≤ 10
Cc1cccc(/C=N/n2cnc3c(Nc4cccnc4)nc(N4CCOCC4)nc32)c1 [Example 191, (E)-9-((3-methylbenzylidene)amino)-2-morpholino-N-(pyridin-3-yl)-9H-purin-6-amine]	76.59	–	10 to 20
Cc1cccc(/C=N/Nc2nc(N3CCOCC3)nc3c(-c4c(C)noc4C)cccc23)c1 [Example 210, (E)-4-(8-(3,5-dimethylisoxazol-4-yl)-4-(2-(3-methylbenzylidene)hydrazinyl)quinazolin-2-yl)morpholine]	65.10	–	20 to 30
COc1cccc(-c2cccc3c(N/N=C/c4cccc(C)c4)nc(N4CCOCC4)nc23)c1 [Example 211, (E)-4-(8-(3-methoxyphenyl)-4-(2-(3-methylbenzylidene)hydrazinyl)quinazolin-2-yl)morpholine]	64.14	–	20 to 30
COc1ccc(-c2cccc3c(N/N=C/c4cccc(C)c4)nc(N4CCOCC4)nc23)cc1 [Example 213, (E)-4-(8-(4-methoxyphenyl)-4-(2-(3-methylbenzylidene)hydrazinyl)quinazolin-2-yl)morpholine]	68.30	–	10 to 20

Further lines, results first:

ADP-Glo kinase assay (%, 10 nM) (human GST-PIKFYVE) [%]	Microsomal metabolic stability [1]	IC50 (PIKFYVE) [nM]	SMILES
90.82	Medium (Medium 8.8~48,)	≤ 10	Cc1cccc(/C=N/Nc2nc(N3CCOCC3)nc3c2ncn3CC(=O)c2ccccn2)c1 [Example 23, (E)-2-(6-(2-(3-methylbenzylidene)hydrazinyl)-2-morpholino-9H-purin-9-yl)-1-(pyridin-2-yl)ethan-1-one]
81.60	Low (Low <8.8,)	≤ 10	Cc1ccc(C(=O)Cn2cnc3c(N/N=C/c4cccc(C)c4)nc(N4CCOCC4)nc32)cc1 [Example 42, (E)-2-(6-(2-(3-methylbenzylidene)hydrazinyl)-2-morpholino-9H-purin-9-yl)-1-(p-tolyl)ethan-1-one]
92.24	–	≤ 10	Cc1cccc(/C=N/Nc2nc(N3CCOCC3)nc3c2ncn3-c2ccnc(Cl)c2)c1 [Example 115, (E)-4-(9-(2-chloropyridin-4-yl)-6-(2-(3-methylbenzylidene)hydrazinyl)-9H-purin-2-yl)morpholine]
87.75	–	≤ 10	Cc1cccc(/C=N/Nc2nc(N3CCOCC3)nc3c2ncn3-c2ccc(Cl)cn2)c1 [Example 116, (E)-4-(9-(5-chloropyridin-2-yl)-6-(2-(3-methylbenzylidene)hydrazinyl)-9H-purin-2-yl)morpholine]
81.33	–	≤ 10	Cc1cccc(-c2ccn(-c3nc(N4CCOCC4)nc4c3ncn4-c3cccnc3)n2)c1 [Example 118, 4-(9-(pyridin-3-yl)-6-(3-(m-tolyl)-1H-pyrazol-1-yl)-9H-purin-2-yl)morpholine]
80.61	–	≤ 10	Cc1cccc(/C=N/Nc2nc(N3CCOCC3)nc3c2ncn3-c2ccccc2)c1 [Example 119, (E)-4-(6-(2-(3-methylbenzylidene)hydrazinyl)-9-phenyl-9H-purin-2-yl)morpholine]
84.48	–	≤ 10	Cc1cccc(/C=N/Nc2nc(N3CCOCC3)nc3c2ncn3-c2ccc(N(C)C)cc2)c1 [Example 123, (E)-N,N-dimethyl-4-(6-(2-(3-methylbenzylidene)hydrazinyl)-2-morpholino-9H-purin-9-yl)aniline]
87.81	–	≤ 10	COc1ccccc1-n1cnc2c(N/N=C/c3cccc(C)c3)nc(N3CCOCC3)nc21 [Example 124, (E)-4-(9-(2-methoxyphenyl)-6-(2-(3-methylbenzylidene)hydrazinyl)-9H-purin-2-yl)morpholine]
65.27	–	≤ 10	Cc1cccc(/C=N/Nc2nc(N3CCOCC3)nc3c2ncn3-c2cccc(OC3CC3)c2)c1 [Example 125, (E)-4-(9-(3-cyclopropoxyphenyl)-6-(2-(3-methylbenzylidene)hydrazinyl)-9H-purin-2-yl)morpholine]
90.79	–	≤ 10	Cc1ccc(-n2cnc3c(N/N=C/c4cccc(C)c4)nc(N4CCOCC4)nc32)nc1 [Example 143, (E)-4-(6-(2-(3-methylbenzylidene)hydrazinyl)-9-(5-methylpyridin-2-yl)-9H-purin-2-yl)morpholine]
94.29	–	≤ 10	Cc1cccc(/C=N/Nc2nc(N3CCOCC3)nc3c2ncn3-c2cncc(C)c2)c1 [Example 145, (E)-4-(6-(2-(3-methylbenzylidene)hydrazinyl)-9-(5-methylpyridin-3-yl)-9H-purin-2-yl)morpholine]

Source: patent US20250388582A1, “NOVEL BICYCLIC HETEROARYL COMPOUND AND USE THEREOF” (ILDONG PHARMACEUTICAL CO., LTD., priority 2022, published 2025)
